Here are results for 12 molecules from article PMC10496295, “In vitro cytotoxic effect of stigmasterol derivatives against breast cancer cells” (BMC Complementary Medicine and Therapies, 2023).

Broadly, the cell viability is a per cent measure of how many cells are alive, often set against a control. For orientation: EC50 means the concentration at which the effect is half-maximal. Usually melting point stands for the temperature of the solid-liquid transition.

In series [1] the test system is U937 human monocytic cell line. On the set-up: method as in PMID 20828195. To be noted: cited from earlier work; for reduction in cell viability / level of cell death compared to the untreated control: p < 0.05; for level of cell death compared to the untreated control: FDA/EtBr staining.
Series [2] concerns MCF-12 A non-tumorigenic breast epithelial cell line. Description: resazurin cytotoxicity assay, MCF-12 A cells. The class given is cell-based. To be noted: Homo sapiens.
The subject of series [3] is HCC70 triple negative breast cancer cell line. The experiment in a line: resazurin cytotoxicity assay, HCC70 cells. The note with it: for SI (selectivity index), HCC70: EC50 against MCF12A cells ÷ EC50 against HCC70 cells; for EC50: Homo sapiens. The class given is cell-based. In general terms: Resazurin is reduced to fluorescent resorufin, in cell work by metabolically active cells.

The subject of series [4] is MCF-7 hormone receptor-positive breast cancer cell line. Description: resazurin cytotoxicity assay, MCF-7 cells. The class given is cell-based. The note with it: for EC50: Homo sapiens; for SI (selectivity index), MCF-7: EC50 against MCF12A cells ÷ EC50 against MCF-7 cells.
The subject of series [5] is oxidative burst of the whole blood. On the set-up: method as in PMID 23136063. To be noted: cited from earlier work.
Series [6] deals with human ovarian cancer cells ES2. On the set-up: method as in PMID 32481565. The note with it: treatment concentration 20 µg/mL; cited from earlier work.
For series [7], the system named is human breast cancer MCF-7 cell line. On the set-up: method as in PMID 33839518. To be noted: read-out: IC50 against MCF-7 cell line; cited from earlier work.
For series [8], the system named is human ovarian cancer cells OV90. On the set-up: method as in PMID 32481565. To be noted: treatment concentration 20 µg/mL; cited from earlier work.
The subject of series [9] is human gastric cancer cell line SNU-1. The note with it: read-out: IC50, SNU-1 proliferation; cited from earlier work.
Setting [10] is: MCF-12 A cells, 96 h treatment, resazurin assay, read-out: EC50 and Standard deviation, MCF-12 A.
Setting [11] is: HCC70 cells, 96 h treatment, resazurin assay, read-out: EC50 and Standard deviation, HCC70.
Where [12] appears, read: MCF7, MCF-7 cells, 96 h treatment, resazurin assay, read-out: EC50 and Standard deviation, MCF-7.
Setting [13] is: MCF-12A, 96 h, read-out: EC50 and Standard deviation, MCF-12 A, MCF-12 A cells, 96 h treatment, resazurin assay.
The mark [14] stands for this setting: HCC70, 96 h, read-out: EC50 and Standard deviation, HCC70, HCC70 cells, 96 h treatment, resazurin assay.
Where [15] appears, read: MCF7, 96 h, read-out: EC50 and Standard deviation, MCF-7, MCF-7 cells, 96 h treatment, resazurin assay.

Where two headings read alike, the source gives them in different places.

As to `CC[C@@H](C(C)C)C(O)C(O)[C@@H](C)[C@H]1CC[C@H]2[C@@H]3CC=C4C[C@@H](O)CC[C@]4(C)[C@H]3CC[C@]12C` (stereo partly drawn) [Compound 9, Stigmast-5-ene-3β,22,23-triol], the “reduction in cell viability” value in [1] (U937 cells, 30, 60 and 120 µM) is “significant reduction”. For the same molecule, the “level of cell death compared to the untreated control” value in [1] (U937 cells) is “significant”. Besides, the cell viability in [1] (U937 cells, highest concentration 120 µM) is 52.3%. In addition, the EC50 in series [2] (setting [10]) was 51800 ± 1130 nM; in series [3] (setting [11]), 44500 ± 1130 nM; in [4] (setting [12]), 22900 ± 1090 nM. For the same molecule, the “SI (selectivity index), HCC70” value in [3] came out at 1.16.
As to `CC[C@H](C=C[C@@H](C)[C@H]1CC[C@H]2[C@@H]3C(=O)C=C4CC(=O)CC[C@]4(C)[C@H]3CC[C@]12C)C(C)C` [Compound 3, Stigmasta-5,22-dien-3,7-dione], the melting point was in the range of 152 to 155 °C. In [2] (setting [10]), the EC50 worked out at 30200 ± 1240 nM. Further, the IC50 in series [5] is 15.6 ± 2.1 µM. In series [3], the “SI (selectivity index), HCC70” value worked out at 0.45. The 50% effective concentration (EC50) in series [3] (setting [11]) worked out at 67700 ± 1260 nM. In [4], the “SI (selectivity index), MCF-7” value came to 0.70. In addition, the 50% effective concentration (EC50) in [4] (setting [12]) amounted to 42800 ± 1320 nM.
Molecule `CC[C@H](C=C[C@@H](C)[C@H]1CC[C@H]2[C@@H]3CC4OC45C[C@@H](O)CC[C@]5(C)[C@H]3CC[C@]12C)C(C)C` (stereo partly drawn) [Compound 4, 5,6-Epoxystigmast-22-en-3β-ol] registered a melting point of 142 to 145 °C. In addition, the EC50 in series [2] (setting [10]) came out at 47000 ± 1180 nM. The “SI (selectivity index), HCC70” value in [3] came to 0.28. Moreover, the 50% effective concentration (EC50) in series [3] (setting [11]) worked out at 165700 ± 1300 nM. Also, the EC50 in series [4] (setting [12]) is 21900 ± 1320 nM.
The molecule `CC[C@@H](C(C)C)C(O)C(O)[C@@H](C)C1CCC2C3C(=O)C(O)C4(O)CC(=O)CC[C@]4(C)C3CC[C@@]21C` (stereo partly drawn) [Compound 8, Stigmasta-3,7-dion-5,6,22,23-ol] showed a melting point of 183 to 187 °C. The EC50 in [2] (setting [10]) is > 250000 nM. Moreover, the EC50 in series [3] (setting [11]) was found to be 53200 ± 1060 nM. For the same molecule, in [4] (setting [12]), the EC50 was > 250000 nM.
The molecule `CC[C@@H](C(C)C)C(O)C(O)[C@@H](C)[C@H]1CC[C@H]2[C@@H]3CC(O)C4(O)C[C@@H](O)CC[C@]4(C)[C@H]3CC[C@]12C` (stereo partly drawn) [Compound 6, Stigmastane-3β,5,6,22,23-pentol] yielded a melting point of 201 to 204 °C. Also, the EC50 in series [2] (setting [10]) was found to be 22600 ± 1220 nM. The concentration giving a half-maximal response (EC50) in [3] (setting [11]) was found to be 16800 ± 1170 nM. Besides, the “SI (selectivity index), MCF-7” value in series [4] stood at 0.51. Also, in series [4] (setting [12]), the EC50 amounted to 44100 ± 1400 nM.
`CC(C)Cc1ccc(C(C)C(=O)O)cc1` (stereo not drawn) [ibuprofen, reference compound]: the IC50 in series [5] is 12.1 µM.
`CC[C@H](C=C[C@@H](C)[C@H]1CC[C@H]2[C@@H]3CC=C4C[C@@H](O)CC[C@]4(C)[C@H]3CC[C@]12C)C(C)C` [Compound 1, stigmasta-5,22-dien-3β-ol]: the “reduction of growth of ES2 cells” value in series [6] is 50%. Besides, the values for the IC50 in series [7] and in series [9] were 0.162 µM and 15 µM, respectively. The EC50 in [2] (setting [13]), in series [3] (setting [14]) and in series [4] (setting [15]) was > 250000 nM in each case. Further, in [8], the “reduction of growth of OV90 cells” value is given as 50%.
Take `CC[C@H](/C=C/[C@@H](C)C1CCC2C3CC=C4C[C@@H](OC(C)=O)CC[C@]4(C)C3CC[C@@]21C)C(C)C` (stereo partly drawn) [Compound 2, Stigmasterol acetate]: the melting point was in the range of 139 to 141 °C. Also, the EC50 in series [2] (setting [13]) was > 250000 nM. The EC50 in series [3] (setting [14]) is > 250000 nM. Moreover, the EC50 in series [4] (setting [15]) is > 250000 nM.
As to `N.N.[Cl][Pt][Cl]` [cisplatin, reference compound], the IC50 in series [7] was 13.2 µM.
On to `CC[C@@]1(O)C(=O)OCc2c1cc1n(c2=O)Cc2cc3ccccc3nc2-1` [Camptothecin, reference compound], for which the EC50 worked out at 104.2 ± 1.03 nM in series [2] (MCF-12 A cells, 96 h, resazurin assay, positive control, row unit nM, read-out: EC50 and Standard deviation, MCF-12 A); 83.2 ± 1.08 nM in [3] (HCC70 cells, 96 h, resazurin assay, positive control, row unit nM, read-out: EC50 and Standard deviation, HCC70); 104 ± 9.92 nM in series [4] (MCF7, MCF-7 cells, 96 h, resazurin assay, positive control, row unit nM, read-out: EC50 and Standard deviation, MCF-7). Moreover, the “SI (selectivity index), HCC70” value in series [3] was 1.25. Also, the “SI (selectivity index), MCF-7” value in [4] was found to be 1.00.
As to `CC[C@@H](C(C)C)C(O)C(O)[C@@H](C)C1CCC2C3CC4OC45C[C@@H](O)CC[C@]5(C)C3CC[C@@]21C` (stereo partly drawn) [Compound 5, 5,6-Epoxystigmasta-3β,22,23-triol], the “reduction in cell viability” value in [1] (U937 cells, 60 and 120 µM) is recorded as “significantly reduced cell viability”. Moreover, the “level of cell death compared to the untreated control” value in [1] (U937 cells) was “significant”. Besides, in series [1] (U937 cells, staining with Hoechst 33,342), the “mode of cell death” value is given as “apoptosis”. Also, the concentration giving a half-maximal response (EC50) in series [2] (setting [10]) came to 30200 ± 1280 nM; in series [3] (setting [11]), 33700 ± 1330 nM; in [4] (setting [12]), 44000 ± 1400 nM. Moreover, in series [3], the “SI (selectivity index), HCC70” value is listed as 0.90. Besides, in series [4], the “SI (selectivity index), MCF-7” value was determined as 0.69.
On to `CC[C@@H](C(C)C)C(O)C(O)[C@@H](C)[C@H]1CC[C@H]2[C@@H]3C(=O)C=C4CC(=O)CC[C@]4(C)[C@H]3CC[C@]12C` (stereo partly drawn) [Compound 7, Stigmasta-5-en-3,7-dion-22,23-diol], for which the melting point was in the range of 137 to 140 °C. Besides, in [2] (setting [10]), the concentration giving a half-maximal response (EC50) was determined as 31600 ± 1120 nM. Moreover, the “SI (selectivity index), HCC70” value in series [3] is recorded as 0.19. Moreover, in [3] (setting [11]), the EC50 was 170100 ± 1180 nM. Besides, the “SI (selectivity index), MCF-7” value in [4] stood at 1.36. Also, the concentration for a half-maximal effect (EC50) in [4] (setting [12]) was determined as 23200 ± 1080 nM.
